Measurements taken from patent US8735406B2, “8-oxodihydropurine derivative” (Dainippon Sumitomo Pharma Co., Ltd., priority 2009, dated 2014).
Where a name gives a salt, the structure may show the parent alone. Read-outs that look alike come from different tables or passages of the source.

Molecular target: T1, FAAH (Rattus norvegicus, UniProt P97612)
T1 construct: Preparation of Rat Brain Membranes Preparations (FAAH Enzyme Solution); from tissue; host or cells: rat cerebrum (brain membrane preparation)
T1 sequence (P97612 1-579): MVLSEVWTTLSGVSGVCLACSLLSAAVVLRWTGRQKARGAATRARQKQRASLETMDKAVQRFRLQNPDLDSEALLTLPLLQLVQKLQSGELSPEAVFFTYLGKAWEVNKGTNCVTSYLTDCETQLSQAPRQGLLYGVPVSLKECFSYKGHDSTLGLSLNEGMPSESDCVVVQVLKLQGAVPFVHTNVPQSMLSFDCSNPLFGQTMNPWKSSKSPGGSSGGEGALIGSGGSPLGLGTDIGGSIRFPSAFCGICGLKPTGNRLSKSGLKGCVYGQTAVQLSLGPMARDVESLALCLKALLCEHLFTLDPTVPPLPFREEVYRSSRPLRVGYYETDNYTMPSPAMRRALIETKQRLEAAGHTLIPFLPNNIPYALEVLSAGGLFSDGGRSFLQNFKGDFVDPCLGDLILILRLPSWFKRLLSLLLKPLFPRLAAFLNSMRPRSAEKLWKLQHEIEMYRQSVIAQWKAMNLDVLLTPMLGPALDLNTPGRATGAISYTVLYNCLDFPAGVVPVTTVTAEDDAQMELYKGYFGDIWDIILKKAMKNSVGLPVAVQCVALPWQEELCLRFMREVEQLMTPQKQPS
Test: Determination of FAAH inhibitory activity in rat (rat brain membrane preparations, [3H]-anandamide hydrolysis)
Type: biochemical
Details: rat brain membrane preparations; for IC50: read-out: FAAH Inhibition IC50
Procedure, shortened: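 Rat cerebrum membranes (100 μg/mL protein) preincubated 10 min at 37 °C with compound (1% DMSO) in pH 7.6 Tris buffer with 1.5% BSA. Substrate 2 nM [3H]-anandamide plus 2 μM anandamide added for 10 min at 37 °C. [3H]-ethanolamine in the aqueous phase after chloroform/methanol extraction was scintillation counted; IC50 over 0.1 nM–1 μM.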

[1] = 100 nM test substance, read-out: FAAH Inhibition, Inhibition Rate at 100 nM

SMILES: COc1ccc(Cc2ncc3c(n2)n(C(=O)N2CCCC2)c(=O)n3C)cc1 [Example 287, 2-(4-Methoxybenzyl)-7-methyl-9-(pyrrolidin-1-ylcarbonyl)-7,9-dihydro-8H-purine-8-one]
- inhibition at 0.1 µM [1]: 96%
- IC50 (test substance 0.1 nM to 1 μM): 29 nM

SMILES: COc1ccc(-c2ncc3c(n2)n(C)c(=O)n3C(=O)N2CCCC2)cc1F [compound 191]
- inhibition at 0.1 µM [1]: 105%
- IC50 (test substance 0.1 nM to 1 μM): 7 nM

SMILES: Cc1ccc(N2CCN(C(=O)n3c(=O)n(C)c4nc(-c5ccccc5)ncc43)CC2)nc1 [Example 56, 9-Methyl-7-{[4-(5-methylpyridin-2-yl)piperazin-1-yl]carbonyl}-2-phenyl-7,9-dihydro-8H-purine-8-one]
- inhibition at 0.1 µM [1]: 100%
- IC50 (test substance 0.1 nM to 1 μM): 7 nM

SMILES: Cn1c(=O)n(C(=O)N2CCCC2)c2cnc(Cc3cc(F)ccc3F)nc21 [Example 267, 2-(2,5-Difluorobenzyl)-9-methyl-7-(pyrrolidin-1-ylcarbonyl)-7,9-dihydro-8H-purine-8-one]
- inhibition at 0.1 µM [1]: 99%
- IC50 (test substance 0.1 nM to 1 μM): 23 nM

SMILES: COc1cccc(-c2ncc3c(n2)n(C)c(=O)n3C(=O)N2CC=C(/C=C/c3ccc(F)cc3)CC2)c1 [Example 95, 7-({4-[(E)-2-(4-Fluorophenyl)ethenyl]-3,6-dihydropyridin-1(2H)-yl}carbonyl)-2-(3-methoxyphenyl)-9-methyl-7,9-dihydro-8H-purine-8-one]
- inhibition at 0.1 µM [1]: 101%
- IC50 (test substance 0.1 nM to 1 μM): 3 nM

SMILES: CCOc1ccc(-c2ncc3c(n2)n(C(=O)N(C)C)c(=O)n3C)cc1 [compound 320]
- inhibition at 0.1 µM [1]: 45%
- IC50 (test substance 0.1 nM to 1 μM): 113 nM

SMILES: COCc1ncc2c(n1)n(C)c(=O)n2C(=O)N1CC(c2cccc(OC)c2)C1 [Example 459, 2-(Methoxymethyl)-7-{[3-(3-methoxyphenyl)azetidin-1-yl]carbonyl}-9-methyl-7,9-dihydro-8H-purine-8-one]
- inhibition at 0.1 µM [1]: 108%
- IC50 (test substance 0.1 nM to 1 μM): 9 nM

SMILES: Cn1c(=O)n(C(=O)N2CCCC2)c2cnc(/C=C/c3ccc(C(F)(F)F)cc3)nc21 [compound 3]
- inhibition at 0.1 µM [1]: 59%
- IC50 (test substance 0.1 nM to 1 μM): 86 nM

SMILES: CCN(C)C(=O)n1c(=O)n(C)c2cnc(CCc3cccc(OC)c3)nc21 [compound 557]
- inhibition at 0.1 µM [1]: 66%
- IC50 (test substance 0.1 nM to 1 μM): 67 nM

SMILES: COc1cccc(/C=C/c2ncc3c(n2)n(C(=O)N2CCCC2)c(=O)n3C)c1 [Example 247, 2-[(E)-2-(3-Methoxyphenyl)ethenyl]-7-methyl-9-(pyrrolidin-1-ylcarbonyl)-7,9-dihydro-8H-purine-8-one]
- inhibition at 0.1 µM [1]: 97%
- IC50 (test substance 0.1 nM to 1 μM): 39 nM

SMILES: Cc1cccc(-c2ncc3c(n2)n(C(=O)N2CCCC2)c(=O)n3C)c1 [Example 228, 7-Methyl-2-(3-methylphenyl)-9-(pyrrolidin-1-ylcarbonyl)-7,9-dihydro-8H-purine-8-one]
- inhibition at 0.1 µM [1]: 99%
- IC50 (test substance 0.1 nM to 1 μM): 31 nM

SMILES: Cn1c(=O)n(C(=O)N2CCC2)c2nc(COc3cccc(F)c3)ncc21 [Example 420]
- inhibition at 0.1 µM [1]: 60%
- IC50 (test substance 0.1 nM to 1 μM): 65 nM

SMILES: CN(C)C(=O)n1c(=O)n(C)c2cnc(CCCOc3ccc(C(F)(F)F)cc3)nc21 [Example 394, N,N,7-trimethyl-8-oxo-2-{3-[4-(trifluoromethyl)phenoxy]propyl}-7,8-dihydro-9H-purine-9-carboxamide hydrochloric acid salt]
- inhibition at 0.1 µM [1]: 94%
- IC50 (test substance 0.1 nM to 1 μM): 7 nM

SMILES: CCOC(=O)CCc1ncc2c(n1)n(C)c(=O)n2C(=O)N1CCCC1 [Example 276]
- inhibition at 0.1 µM [1]: 63%
- IC50 (test substance 0.1 nM to 1 μM): 75 nM

SMILES: CN(CCc1ccc(Cl)cc1)C(=O)n1c(=O)n(C)c2nc(-c3ccnc(F)c3)ncc21 [Example 222, N-[2-(4-Chlorophenyl)ethyl]-2-(2-fluoropyridin-4-yl)-N,9-dimethyl-8-oxo-8,9-dihydro-7H-purine-7-carboxamide]
- inhibition at 0.1 µM [1]: 99%
- IC50 (test substance 0.1 nM to 1 μM): < 1 nM

SMILES: Cn1c(=O)n(C(=O)N2CCCC2)c2nc(-c3cccc(F)c3)ncc21 [Example 226, 2-(3-Fluorophenyl)-7-methyl-9-(pyrrolidin-1-ylcarbonyl)-7,9-dihydro-8H-purine-8-one]
- inhibition at 0.1 µM [1]: 99%
- IC50 (test substance 0.1 nM to 1 μM): 27 nM

SMILES: COc1cccc(-c2ncc3c(n2)n(C)c(=O)n3C(=O)N(C)CCc2ccc(N(C)C)cc2)c1 [Example 113, N-{2-[4-(Dimethylamino)phenyl]ethyl}-2-(3-methoxyphenyl)-N,9-dimethyl-8-oxo-8,9-dihydro-7H-purine-7-carboxamide]
- inhibition at 0.1 µM [1]: 103%
- IC50 (test substance 0.1 nM to 1 μM): 3 nM

SMILES: Cn1c(=O)n(C(=O)N2CCC2)c2nc(CCc3cccc(C(F)F)c3)ncc21 [compound 594]
- inhibition at 0.1 µM [1]: 84%
- IC50 (test substance 0.1 nM to 1 μM): 21 nM

SMILES: COc1ccc(CCc2ncc3c(n2)n(C(=O)N(C)C)c(=O)n3C)cc1 [compound 544]
- inhibition at 0.1 µM [1]: 122%
- IC50 (test substance 0.1 nM to 1 μM): 11 nM

SMILES: COCCCc1ncc2c(n1)n(C)c(=O)n2C(=O)N1CC(c2ccc(C(F)(F)F)cc2)C1 [Example 380, 2-(3-methoxypropyl)-9-methyl-7-({3-[4-(trifluoromethyl)phenyl]azetidin-1-yl}carbonyl)-7,9-dihydro-8H-purine-8-one]
- inhibition at 0.1 µM [1]: 100%
- IC50 (test substance 0.1 nM to 1 μM): 8 nM

SMILES: COc1cccc(CCc2ncc3c(n2)n(C)c(=O)n3C(=O)N2CCCC2)c1 [compound 15]
- inhibition at 0.1 µM [1]: 75%
- IC50 (test substance 0.1 nM to 1 μM): 63 nM

SMILES: CN(C)C(=O)n1c(=O)n(C)c2cnc(CCc3cccc(OCC(F)(F)F)c3)nc21 [Example 552, N,N,7-Trimethyl-8-oxo-2-{2-[3-(2,2,2-trifluoroethoxy)phenyl]ethyl}-7,8-dihydro-9H-purine-9-carboxamide]
- inhibition at 0.1 µM [1]: 98%
- IC50 (test substance 0.1 nM to 1 μM): 15 nM

SMILES: CCCn1c(=O)n(C(=O)N2CC(c3ccc(F)cc3)C2)c2cnc(COC)nc21 [Example 659, 7-{[3-(4-Fluorophenyl)azetidin-1-yl]carbonyl}-2-(methoxymethyl)-9-propyl-7,9-dihydro-8H-purine-8-one]
- inhibition at 0.1 µM (at 100 nM, read-out: FAAH Inhibition Inhibition Rate at 100 nM): 112%
- IC50: 6 nM

SMILES: COCc1ncc2c(n1)n(C)c(=O)n2C(=O)N1CC[C@H](Oc2cccc(F)c2)C1 [Example 482, 7-{[(3S)-3-(3-Fluorophenoxy)pyrrolidin-1-yl]carbonyl}-2-(methoxymethyl)-9-methyl-7,9-dihydro-8H-purine-8-one]
- inhibition at 0.1 µM [1]: 104%
- IC50 (test substance 0.1 nM to 1 μM): 10 nM

SMILES: CCc1cccc(CCc2ncc3c(n2)n(C(=O)N(C)C)c(=O)n3C)c1 [compound 516]
- inhibition at 0.1 µM [1]: 100%
- IC50 (test substance 0.1 nM to 1 μM): 10 nM

SMILES: COc1cccc(-c2ncc3c(n2)n(C)c(=O)n3C(=O)N2CCN(CC(F)(F)F)CC2)c1 [Example 99, 2-(3-Methoxyphenyl)-9-methyl-7-{[4-(2,2,2-trifluoroethyl)piperazin-1-yl]carbonyl}-7,9-dihydro-8H-purine-8-one]
- inhibition at 0.1 µM [1]: 100%
- IC50 (test substance 0.1 nM to 1 μM): 7 nM

SMILES: COc1cccc(-c2ncc3c(n2)n(C)c(=O)n3C(=O)N2CC[C@@H](F)C2)c1 [Example 62, 7-{[(3R)-3-Fluoropyrrolidin-1-yl]carbonyl}-2-(3-methoxyphenyl)-9-methyl-7,9-dihydro-8H-purine-8-one]
- inhibition at 0.1 µM [1]: 90%
- IC50 (test substance 0.1 nM to 1 μM): 26 nM

SMILES: COCc1ncc2c(n1)n(C)c(=O)n2C(=O)N1CC[C@H](Oc2ccc(Cl)cc2)C1 [Example 489, 7-{[(3S)-3-(4-Chlorophenoxy)pyrrolidin-1-yl]carbonyl}-2-(methoxymethyl)-9-methyl-7,9-dihydro-8H-purine-8-one]
- inhibition at 0.1 µM [1]: 98%
- IC50 (test substance 0.1 nM to 1 μM): 1 nM

SMILES: COc1cccc(-c2ncc3c(n2)n(C)c(=O)n3C(=O)N2CCN(c3ccc(C)cc3)CC2)c1 [Example 138, 2-(3-Methoxyphenyl)-9-methyl-7-{[4-(4-methylphenyl)piperazin-1-yl]carbonyl}-7,9-dihydro-8H-purine-8-one]
- inhibition at 0.1 µM [1]: 99%
- IC50 (test substance 0.1 nM to 1 μM): 6 nM

SMILES: COc1cccc(-c2ncc3c(n2)n(C)c(=O)n3C(=O)N2CCC2)c1 [Example 57, 7-(Azetidin-1-ylcarbonyl)-2-(3-methoxyphenyl)-9-methyl-7,9-dihydro-8H-purine-8-one]
- inhibition at 0.1 µM [1]: 101%
- IC50 (test substance 0.1 nM to 1 μM): 5 nM

SMILES: CN(C)C(=O)n1c(=O)n(C)c2cnc(CCc3cccc(F)c3)nc21 [Example 165, 2-[2-(3-Fluorophenyl)ethyl]-N,N,7-trimethyl-8-oxo-7,8-dihydro-9H-purine-9-carboxamide]
- inhibition at 0.1 µM [1]: 103%
- IC50 (test substance 0.1 nM to 1 μM): 4 nM

SMILES: COc1cccc(-c2ncc3c(n2)n(C)c(=O)n3C(=O)N(C)CC(C)C)c1 [Example 108, 2-(3-Methoxyphenyl)-N,9-dimethyl-N-(2-methylpropyl)-8-oxo-8,9-dihydro-7H-purine-7-carboxamide]
- inhibition at 0.1 µM [1]: 94%
- IC50 (test substance 0.1 nM to 1 μM): 22 nM

SMILES: CCN(C)C(=O)n1c(=O)n(C)c2nc(-c3ccccc3)ncc21 [Example 2, N-ethyl-N,9-dimethyl-8-oxo-2-phenyl-8,9-dihydro-7H-purine-7-carboxamide]
- inhibition at 0.1 µM [1]: 99%
- IC50 (test substance 0.1 nM to 1 μM): 10 nM

SMILES: CN(C)C(=O)n1c(=O)n(C)c2cnc(CCc3ccccc3C(F)(F)F)nc21 [compound 542]
- inhibition at 0.1 µM [1]: 100%
- IC50 (test substance 0.1 nM to 1 μM): 10 nM
